Reference: patent US20220267373A1, “SELF-ASSEMBLING PEPTIDES AND HYDROGELS” (UNIVERSITY OF VIRGINIA PATENT FOUNDATION, priority 2018, published 2022)
Read-outs that look alike come from different tables or passages of the source. Where no end group is shown, it is not given here.

What was measured:
[1] = Hydrogel formation (gelation) of peptides dissolved in PBS with pH adjustment; format: physicochemical; conditions: for hydrogel formation: dissolved in PBS at pH 7.4 and 1.5 wt %; for gelation as the pH was raised: pH raised from low pH
Protocol: (§1) Lyophilized peptides were dissolved in PBS to a final concentration of 1.5 or 3 wt. %. The pH of the peptide solutions was adjusted by drop-wise addition of minute amounts of HCl or NaOH. Rheological tests were performed on 50 μL hydrogels 30 minutes after induction of gelation (Anton Par, P25S 25 mm parallel steel plates) with a measuring gap of 250 μm. Storage (G′) and loss (G″) moduli were measured as a function of strain (%) ranging from 0.01 to 100% with a constant frequency of 10 rad/s. Frequency sweeps were performed at angular frequencies ranging from 1 to 100 rad/s at 0.1% strain. For recovery experiments, a step-time procedure was utilized with a series of applied strains at a fixed oscillation frequency of 10 rad/s. Initially, samples were applied with 0.01% strain for 100 s followed immediately by a 100% strain for 50 s, and cycled 5 times.
The secondary structural content of pentapeptide specimens was probed by ATR-FTIR spectroscopy. Samples of the pentapeptides of interest were generated via solid-phase peptide synthesis methods. An alanine (Ala) scan of KYFIL was used to assess each AA's contribution to gelation, wherein individual amino acids (AAs) were sequentially exchanged with Ala or Val. Ala and Val were the substituted residues of choice, as they either eliminate a side-chain beyond the Cβ atom (Ala) or otherwise would be expected to minimally alter the main-chain conformation (Val). As uncharged and relatively compact residues, Ala and Val would not be expected to introduce (confounding) electrostatic or steric effects. All pentapeptides were dissolved in phosphate-buffered saline (PBS) at a concentration of 1.5% or 3% (weight/volume) and adjusted to a pH of 7.4. Gelling peptides (solid lines, FIG. 2) display a strong amide I absorbance at ≈1629 cm^−1, arising from vibrational modes of the amide group; these vibrations, in the region of 1700→1600 cm^−1, correspond to stretching of the C═O and C—N bonds, as well as bending of the N—H. This region of the IR spectrum is particularly sensitive to variations in secondary structural conformation and, in the case of our pentapeptide samples, is indicative of β-sheet hydrogen bonding (FIG. 2, FIG. 12, and FIGS. 13A-B). […] This can be inferred because the amide I region of parallel β-sheets harbors a single predominant signature (near 1630 cm^−1), while antiparallel sheets generally feature a second (minor) peak near ≈1680-1690 cm^−1. […] By correlating our IR observations with variations in AA sequence, it appears that amphiphilicity and a capacity for π-system interactions (e.g., π . . . π stacking and π . . . cation interactions with the benzyl side-chain of the central Phe) play a key role in self-assembly and hydrogel formation (FIG. 2).

[2] = Apparent viscosity versus shear rate (shear-thinning); format: physicochemical
[3] = Rheology: storage modulus (G') from strain sweeps of peptide hydrogels; format: physicochemical; conditions: pH 7.4
Protocol: as §1

[4] = system: MADM OPC line; assay: Hydrogel cell encapsulation and 3D culture (ATP, DNA, live/dead, immunostaining); format: cell-based
Protocol: OPCs were cultured in DMEM with high glucose, 4 mM L-glutamine, 1 mM sodium pyruvate (Life Technologies) with N2 and B27 supplement (Life Technologies), 1% penicillin-streptomycin (Life Technologies), 10 ng/mL mouse PDGFA-AA (eBioscience), and 50 ng/mL human NT3 (Peprotech). Cell media was changed every 2 days, and cells were grown to 90% confluency and passaged using 0.25% trypsin in Dulbecco's phosphate buffered saline (PBS). Cells were cultured in 5% CO2 atmosphere, and 21% O2 at 37° C.
Hydrogels for cell encapsulation were made using 1.5 wt % AYFIL peptide in PBS. 25 μL hydrogels with 5×10^6 cells/mL were made by mixing cells and peptides and then transferred to a cell incubator for 10 minutes at 37° C. at 100% humidity. OPC proliferation media was then added to the hydrogels, and changed every 2 days. Hydrogels were stored at −80° C. in lysis buffer before running ATP or DNA quantification assays. For quantification, gels were homogenized in lysis buffer using a hand grinder and were measured using the CellTiter-Glo luminescent Cell Viability Assay (Promega, United States) and the QuantiT PicoGreen dsDNA assay (ThermoFisher) according to manufacturer protocols.
After 2 days of culture, gels were fixed in 4% paraformaldehyde for 20 minutes at 4° C. and rinsed with PBS before permeabilizing overnight with 0.3% triton-X in PBS. Hydrogels were rinsed in PBS, and then incubated with 10 μg/mL stock solution of Alexa Fluor 568 Phalloidin (ThermoFisher) in 1% BSA in PBS overnight. 4′,6-diamidino-2-phenylindole (DAPI) was added to stain cell nuclei during the last 20 minutes of incubation. Gels were then washed 4×20 min in PBS and imaged with a Zeiss LSM 780 confocal microscope. 100 μm z-stack images were collected with a z-spacing distance of 1 μm.

[5] = Electron microscopy (TEM, cryo-EM) of nanofiber morphology; format: physicochemical; conditions: for typical fiber / ribbon diameter: 1.5 wt % hydrogels at pH 7.4; for nanostructure morphology (TEM): 1.5 wt % in PBS at pH 7.4
Protocol: 3.5 μL of peptide hydrogel was placed on a holey carbon grid (Protochips, Inc.). Three washes of deionized water, and three washes of 2% uranyl acetate staining solutions with 2 s blotting between each step was performed. Samples were analyzed on a Tecnai F20 equipped with a 4 k×4 k UltraScan CCD camera. Pitch and length were determined using Fiji (Schindelin, J. et al., Fiji: an open-source platform for biological-image analysis. Nat Methods 2012, 9 (7), 676-682, herein incorporated by reference in its entirety) and the FiberApp software package (Usov, I.; Mezzenga, R., FiberApp: An Open-Source Software for Tracking and Analyzing Polymers, Filaments, Biomacromolecules, and Fibrous Objects. Macromolecules 2015, 48 (5), 1269-1280, herein incorporated by reference in its entirety) was used to compute autocorrelation functions of intensity profiles.

[6] = Step-strain recovery / thixotropy test of hydrogel; format: physicochemical
Protocol: as §1, with “Initially, samples were applied with 0.01% strain for 100 s followed immediately by a 100% strain for 50 s, and cycled 5 times.” left out

[7] = pH-responsive solubility of nongelling sequences; format: physicochemical
[8] = 1.5 wt. % hydrogel, thixotropy test, 200% strain (200 s), 400 s recovery, FIG. 21 legend

gelation as the pH was raised [1]	solubility at low pH [7]	behavior as the pH was raised [7]	Substance	storage modulus (G') ([3]; 1.5 wt % hydrogel) [Pa]	storage modulus (G') ([3]; 3 wt % hydrogel) [Pa]	hydrogel formation [1]	typical fiber / ribbon diameter [5]	nanostructure morphology (TEM) [5]	also measured
–	–	–	KYFIL-CO2H	–	–	–	–	–	hydrogel formation of carboxyl-terminated variant ([1]; pH 7.4): did not readily form hydrogels
–	–	–	RGDKYFIL (RGDKYFIL-NH2) [8-mer peptide containing KYFIL]	~100	~1000	–	–	–	shear-thinning behavior (apparent viscosity versus shear rate) [2]: displays shear-thinning behavior
–	–	–	AYFIL-NH2 [AYFIL]	~1900	–	form hydrogels	≈ 10 nm	twisted fibrils	viability and growth of OPCs encapsulated in hydrogel [4]: survived and grew; OPC proliferation (increase in DNA concentration) ([4]; 1.5 wt % hydrogel, 4 days): cells proliferate over the course of 4 days; live/dead staining of encapsulated OPCs ([4]; 1.5 wt % hydrogel, day 1): majority of cells remained viable; time OPCs remained viable after encapsulation (ATP increase) ([4]; 96 h): at least 4 days; time of culture to OPC process extension ([4]; without adhesion peptide sequences or native ECM proteins): ≤ 2 days
–	–	–	KYFIL-NH2 [KYFIL]	8000	17000	form hydrogels	≈ 40 nm	twisted ribbon morphologies	viability and growth of OPCs encapsulated in hydrogel ([4]; 1.5 wt % hydrogel, ATP and DNA concentrations over time): poor cell viability; time to recover 90% of initial G' [6, 8]: 3.5 min; time to recover 96% of initial G' [6, 8]: 7 min; time to recover gel behavior (G'>G'') ([6]; following 100% strain): ≤ 14 s; time to recover 90% of initial G' ([6]; results text (FIG. 21)): 3.4 min; time to recover 96% of initial G' ([6]; results text (FIG. 21)): 7 min; twisted ribbon pitch ([5]; 1.5 wt % hydrogel, pH 7.4, EM): ca. 132 nm; twisted ribbon width ([5]; 1.5 wt % hydrogel, pH 7.4, EM): ca. 40 nm; nanostructure morphology (EM) in nongelling conditions ([5]; 1.5 wt %, pH 4.6): amorphous peptide aggregates; periodicity of the fibrillar twist ([5]; visual analysis and autocorrelation function of pixel intensity, TEM): ~120 nm
–	–	–	KYFAL (KYFAL-NH2) [self-assembling pentapeptide, C-terminally amidated]	–	133	form hydrogels	≈ 10 nm	twisted ribbon morphologies, with longer and more infrequent pitch than KYFIL peptides	–
never gelled	soluble	precipitated as an off-white powder	KYFIV-NH2 [KYFIV]	–	–	–	–	–	–
never gelled	soluble	precipitated as an off-white powder	KYFIA-NH2 [KYFIA]	–	–	–	–	–	–
–	–	–	KAFIL (KAFIL-NH2) [pentapeptide, C-terminally amidated, gels at pH>10]	–	200	–	–	spherical aggregates	gelation at high pH ([1]; pH>10): can gel
never gelled	soluble	precipitated as an off-white powder	KYAIL-NH2 [KYAIL]	–	–	–	–	–	–
